Test results as given in patent US8193350B2, “Fluorescent compound and labeling agent comprising the same” (Keio University, priority 2006, dated 2012).
“And” between values parts separate entries of the source, which are not always exact repeats. Identical values can stand only once. Like-named read-outs stand apart in the source and are kept apart here. Marks after values point to notes of the source that are not given here.

What was measured:
[1] = Optical properties: absorption and fluorescence emission spectra; type: physicochemical
[2] = cited from earlier work
[3] = Light fastness test: change of absorbance with time under the light of daily life; type: physicochemical; conditions: acetonitrile
Experimental: An experiment testing the light fastness of fluorescent compound 8 and Cy7 (trade name, 1-[3-(4-monomethoxytrityloxy)propyl]-1′-[3-[(2-cyanoethyl)-(N,N-diisopropyl)phosphoramidityl]propyl]-3,3,3′,3′-tetramethylindotricarbocyanine chloride) was carried out.
Fluorescent compound 8 and Cy7 (trade name) were respectively dissolved in acetonitrile to a concentration attaining an absorbance of 0.1. The solutions were left to stand under the same conditions (more specifically, under the light of daily life without light shading, and the absorbance was measured every day (or every other day). The change with time of the measured absorbance was graphed taking the relative absorbance (taking the absorbance before leaving to stand as 100%) along the ordinate and taking the days along the abscissa.

[4] = CHCl3, reference N,N′-bis(1-hexylheptyl)-perylene dye (Φ=1.00 in CH2Cl2)
[5] = CHCl3, reference 3,3′-diethyl-dithiazylcarbocyanine, excitation 650 nm, containing error of 10%
[6] = MeOH, reference 3,3′-diethyl-dithiazylcarbocyanine, excitation 650 nm, containing error of 10%

Compound | fwhm (full width at half maximum height) ([1]; MeOH) [nm] | λabs (maximum absorption wavelength) ([1]; MeOH) [nm] | λflu (maximum fluorescence wavelength) ([1]; MeOH) [nm] | fwhm (full width at half maximum height) ([1]; CHCl3) [nm] | λabs (maximum absorption wavelength) ([1]; CHCl3) | λflu (maximum fluorescence wavelength) ([1]; CHCl3) [nm] | shift of maximum absorption wavelength to longer wavelength compared with boron dipyrromethene (R1=R3=R5=R7=Me) [1] | shift of maximum absorption wavelength to longer wavelength compared with fluorescent compound 2 [1] | further results
1-[3-(4-monomethoxytrityloxy)propyl]-1′-[3-[(2-cyanoethyl)-(N,N-diisopropyl)phosphoramidityl]propyl]-3,3,3′,3′-tetramethylindodicarbocyanine chloride [Cy5, reference compound] | 29 | 648 | 670 |  |  |  |  |  | ε (molar extinction coefficient) ([1]; MeOH): 250,000 M^−1cm^−1; Φ (fluorescence quantum yield) ([2]; the value in PBS obtained from Amersham Biosciences): 0.27^a
CCCCC(CCCC)Oc1cc(C)c(C2=C3C=c4sc(C)cc4=[N+]3[B-](F)(F)n3c2cc2sc(C)cc23)c(C)c1 [Fluorescent Compound 3] |  |  |  | 20 | 586 nm | 596 |  |  | ε (molar extinction coefficient) ([1]; CHCl3): 170,000 M^−1cm^−1; Φ (fluorescence quantum yield) [1, 4]: 0.39
COc1ccc(OC)c(-c2cc3c(o2)=CC2=Cc4cc5oc(-c6cc(OC)ccc6OC)cc5n4[B-](F)(F)[N+]=32)c1 [Fluorescent Compound 7] | 28 | 662 | 674 | 24 | 688 nm and 678 nm | 688 | about 170 nm | about 90 nm | Φ (fluorescence quantum yield) [1, 5]: 0.51; Φ (fluorescence quantum yield) [1, 6]: 0.54
COc1ccc(C(OCCC[N+]2=C(C=CC=CC=CC=C3N(CCCOP(OCCC#N)N(C(C)C)C(C)C)c4ccccc4C3(C)C)C(C)(C)c3ccccc32)(c2ccccc2)c2ccccc2)cc1.[Cl-] (centres unmarked) [Cy7, 1-[3-(4-monomethoxytrityloxy)propyl]-1′-[3-[(2-cyanoethyl)-(N,N-diisopropyl)phosphoramidityl]propyl]-3,3,3′,3′-tetramethylindotricarbocyanine chloride] |  |  |  |  |  |  |  |  | light fastness (in words) ([3]; light of daily life, 1 week): very poor; relative absorbance retained (absorbance before leaving to stand as 100%) ([3]; under the light of daily life without light shading, after 1 week): ≤ 10%
CCCCC(CCCC)Oc1cc(C)c(C2=C3C=c4oc(-c5ccc(OC)cc5)cc4=[N+]3[B-](F)(F)n3c2cc2oc(-c4ccc(OC)cc4)cc23)c(C)c1 [Fluorescent Compound 5] | 29 | 664 | 679 | 28 | 673 nm | 685 | about 170 nm | about 90 nm | ε (molar extinction coefficient) ([1]; CHCl3): 190,000 M^−1cm^−1; Φ (fluorescence quantum yield) [1, 4]: 0.68; ε (molar extinction coefficient) ([1]; MeOH): 200,000 M^−1cm^−1; Φ (fluorescence quantum yield) ([1]; MeOH, reference N,N′-bis(1-hexylheptyl)-perylene dye (Φ=1.00 in CH2Cl2)): 0.63; fwhm (full width at half maximum height) ([1]; THF): 27 nm; ε (molar extinction coefficient) ([1]; THF): 190,000 M^−1cm^−1; λabs (maximum absorption wavelength) ([1]; THF): 669 nm; λflu (maximum fluorescence wavelength) ([1]; THF): 680 nm; Φ (fluorescence quantum yield) ([1]; THF, reference N,N′-bis(1-hexylheptyl)-perylene dye (Φ=1.00 in CH2Cl2)): 0.67; fwhm, summary in text of the values in Table 1 ([1]; all solvents of Table 1): about 30 nm
CCN1C(=CC=Cc2sc3ccccc3[n+]2CC)Sc2ccccc21 [3,3′-diethyl-dithiazylcarbocyanine] |  |  |  |  |  |  |  |  | Φ of reference dye ([2]; in MeOH): 0.33
COc1ccc(-c2cc3c(o2)=CC2=Cc4cc5oc(-c6ccc(OC)cc6)cc5n4[B-](F)(F)[N+]=32)cc1 [Fluorescent Compound 6] | 26 | 659 | 672 | 24 | 683 nm and 673 nm | 683 | about 170 nm | about 90 nm | ε (molar extinction coefficient) ([1]; CHCl3, containing error of 10% (Table 4)): 240,000 M^−1cm^−1; Φ (fluorescence quantum yield) [1, 5]: 0.69; Φ (fluorescence quantum yield) [1, 6]: 0.58; fwhm (full width at half maximum height) ([1]; THF): 24 nm; λabs (maximum absorption wavelength) ([1]; THF): 665 nm; λflu (maximum fluorescence wavelength) ([1]; THF): 674 nm; Φ (fluorescence quantum yield) ([1]; THF, reference 3,3′-diethyl-dithiazylcarbocyanine, excitation 650 nm, containing error of 10%): 0.63
